What was measured:
[1] = tested on: Karpas 422 cells (EZH2 Y641N); experiment: Karpas 422 cell viability (Cell Titre Glo); format: cell-based; conditions: Homo sapiens, CTG viability, Day 4, Day 7 or Day 11 (time point not given), read-out: IC50 (nM), Inhibiting Proliferation of Cells Expressing an Activating Mutant Form of EZH2
Protocol: Karpas 422 cell line is a human B cell non-Hodgkin's lymphoma cell line established from a patient having DLBCL. This EZH2 heterozygotic cell line expresses a mutant form of EZH2 enzyme (Y641N) that increases histone H3 methylation and this mutation has been implicated in the tumorgenesis of lymphomas, such as DLBCL.
Karpas 422 cells (PHE cat no., 06101702) were cultured in RPMI medium supplemented with 20% fetal bovine serum and 1% penicillin/1% streptomycin and plated at a density of 1000 cells/90 μl/well in 96 well white assay plates. A dose response curve for compounds of the present invention was determined by adding a 10 μl aliquot of stock solutions of varying concentrations of compounds to the same medium in each well, over a concentration range of 10 μM using 3-fold dilutions to a final concentration of 1.5 nM. The plates were incubated at 37° C. for predetermined time periods, Day 4, Day 7, or Day 11, and the viability of the cells was measured using a CTG assay kit (Cell Titre Glo; Promega cat. no G7573) on Day 4 and Day 7 in accordance with the manufacturer's instructions.
For the viability assay for the Day 11 plates, the plates were subjected to centrifugation at 1100 rpm for five minutes on Day 7 and the supernatant was removed by aspiration. The cells were resuspended in 90 μl aliquot of the appropriate growth medium lacking the compound followed by addition of 10 μl of a 10× stock of the same compound at the same concentration. The viability of the Day 11 cells was measured using the CTG assay kit described above in accordance with the manufacturer's instructions. The IC50 values for each compound at each predetermined time point were calculated using Graph pad PRISM software and the results are shown in Table 8. A=≤250 nM; B=[…]−≤500 nM; C=>500 nM and N.D.=not determined.

[2] = biological target: purified human, His-tagged PRC2 complex (Homo sapiens (Human), UniProt O75530); experiment: Hot Spot HMT assay, inhibition of PRC2 enzymatic activity; format: biochemical; conditions: 10 nM PRC2 complex, 0.05 mg/ml core histone H3, 1 μM 3H-SAM, 1 hr at 30° C.; read-out: IC50, Inhibition of PRC2-mediated Enzymatic Activity
purified human, His-tagged PRC2 complex, sequence (Q15910 whole entry): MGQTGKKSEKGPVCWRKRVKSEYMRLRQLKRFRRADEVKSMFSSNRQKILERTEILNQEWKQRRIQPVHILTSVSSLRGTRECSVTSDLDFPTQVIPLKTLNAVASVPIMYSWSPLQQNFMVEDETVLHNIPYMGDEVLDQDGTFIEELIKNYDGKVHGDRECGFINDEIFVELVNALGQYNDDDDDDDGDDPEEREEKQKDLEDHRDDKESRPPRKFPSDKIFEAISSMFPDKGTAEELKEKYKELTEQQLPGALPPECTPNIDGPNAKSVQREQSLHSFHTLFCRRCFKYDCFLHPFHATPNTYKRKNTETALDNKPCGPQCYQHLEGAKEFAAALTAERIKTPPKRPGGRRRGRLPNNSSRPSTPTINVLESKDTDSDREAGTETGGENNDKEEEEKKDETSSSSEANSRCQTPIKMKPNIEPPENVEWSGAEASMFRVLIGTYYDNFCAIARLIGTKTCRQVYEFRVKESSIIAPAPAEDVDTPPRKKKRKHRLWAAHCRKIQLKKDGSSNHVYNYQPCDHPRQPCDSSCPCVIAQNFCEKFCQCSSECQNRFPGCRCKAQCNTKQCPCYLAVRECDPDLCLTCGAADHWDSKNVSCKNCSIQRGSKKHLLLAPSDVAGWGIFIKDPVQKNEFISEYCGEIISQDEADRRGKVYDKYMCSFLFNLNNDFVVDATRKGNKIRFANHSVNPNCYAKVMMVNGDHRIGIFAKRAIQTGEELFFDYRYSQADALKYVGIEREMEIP
purified human, His-tagged PRC2 complex, sequence (O75530 whole entry): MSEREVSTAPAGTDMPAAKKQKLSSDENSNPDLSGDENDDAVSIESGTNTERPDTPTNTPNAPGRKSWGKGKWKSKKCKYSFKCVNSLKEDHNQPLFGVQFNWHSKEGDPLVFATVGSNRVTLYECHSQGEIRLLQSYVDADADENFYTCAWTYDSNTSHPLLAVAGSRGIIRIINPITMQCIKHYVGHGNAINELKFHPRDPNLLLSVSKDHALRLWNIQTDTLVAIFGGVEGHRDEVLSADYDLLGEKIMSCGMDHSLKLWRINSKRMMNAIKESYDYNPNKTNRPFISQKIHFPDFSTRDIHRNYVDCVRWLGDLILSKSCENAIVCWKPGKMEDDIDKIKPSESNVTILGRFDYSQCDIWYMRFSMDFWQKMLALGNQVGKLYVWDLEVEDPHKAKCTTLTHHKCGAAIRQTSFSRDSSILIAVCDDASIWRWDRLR
purified human, His-tagged PRC2 complex, sequence (Q15022 whole entry partner): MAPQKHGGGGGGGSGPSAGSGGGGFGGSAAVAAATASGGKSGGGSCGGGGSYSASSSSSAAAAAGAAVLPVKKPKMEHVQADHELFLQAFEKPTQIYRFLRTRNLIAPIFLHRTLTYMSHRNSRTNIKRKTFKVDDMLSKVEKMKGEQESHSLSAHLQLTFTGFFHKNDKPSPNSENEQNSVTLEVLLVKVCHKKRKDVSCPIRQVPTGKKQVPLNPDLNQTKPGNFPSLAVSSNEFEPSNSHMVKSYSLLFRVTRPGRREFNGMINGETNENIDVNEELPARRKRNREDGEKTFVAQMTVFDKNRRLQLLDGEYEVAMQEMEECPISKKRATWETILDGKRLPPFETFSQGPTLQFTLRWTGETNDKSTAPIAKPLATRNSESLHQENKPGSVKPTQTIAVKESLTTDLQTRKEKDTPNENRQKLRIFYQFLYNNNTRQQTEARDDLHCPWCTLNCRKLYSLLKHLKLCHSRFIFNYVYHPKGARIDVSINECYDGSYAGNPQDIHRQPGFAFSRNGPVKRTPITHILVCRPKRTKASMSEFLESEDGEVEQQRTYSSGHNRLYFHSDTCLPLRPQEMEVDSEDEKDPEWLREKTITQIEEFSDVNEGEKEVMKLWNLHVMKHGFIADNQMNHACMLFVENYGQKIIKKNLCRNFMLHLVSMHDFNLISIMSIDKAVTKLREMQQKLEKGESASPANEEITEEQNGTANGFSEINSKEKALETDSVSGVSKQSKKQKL
purified human, His-tagged PRC2 complex, sequence (Q6ZN18 whole entry partner): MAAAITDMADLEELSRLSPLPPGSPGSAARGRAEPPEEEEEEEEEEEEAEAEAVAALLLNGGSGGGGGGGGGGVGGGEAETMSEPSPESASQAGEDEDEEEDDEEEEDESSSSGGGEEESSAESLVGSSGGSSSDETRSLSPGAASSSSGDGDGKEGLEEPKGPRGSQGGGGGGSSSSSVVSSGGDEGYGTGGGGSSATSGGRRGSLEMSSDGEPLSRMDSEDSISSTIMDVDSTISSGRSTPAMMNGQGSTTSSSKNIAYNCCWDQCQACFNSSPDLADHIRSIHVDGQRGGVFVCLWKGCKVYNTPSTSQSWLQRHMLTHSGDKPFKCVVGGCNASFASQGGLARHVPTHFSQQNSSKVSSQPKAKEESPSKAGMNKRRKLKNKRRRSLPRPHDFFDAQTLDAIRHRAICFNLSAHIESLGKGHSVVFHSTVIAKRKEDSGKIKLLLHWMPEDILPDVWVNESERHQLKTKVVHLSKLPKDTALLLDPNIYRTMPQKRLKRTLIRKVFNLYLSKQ
purified human, His-tagged PRC2 complex, sequence (Q09028 whole entry partner): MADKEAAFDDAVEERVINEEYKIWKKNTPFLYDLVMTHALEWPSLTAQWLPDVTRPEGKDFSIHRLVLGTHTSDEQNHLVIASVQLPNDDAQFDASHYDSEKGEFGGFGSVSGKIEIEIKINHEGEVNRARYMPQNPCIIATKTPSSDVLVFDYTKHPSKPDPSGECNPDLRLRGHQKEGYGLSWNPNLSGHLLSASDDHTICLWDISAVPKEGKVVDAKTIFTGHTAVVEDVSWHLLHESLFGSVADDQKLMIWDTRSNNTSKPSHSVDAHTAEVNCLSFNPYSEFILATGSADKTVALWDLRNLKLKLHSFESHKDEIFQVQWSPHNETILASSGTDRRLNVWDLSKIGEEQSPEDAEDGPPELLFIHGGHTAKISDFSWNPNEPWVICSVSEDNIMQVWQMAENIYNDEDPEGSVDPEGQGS
How it was run: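 Ten-point, three-fold dilution series from 1.0 μM. 10 nM PRC2 with 0.05 mg/ml core histone H3 in pH 8 Tris buffer was pre-incubated 20 min at 30 °C, then reacted with 1 μM [3H]-SAM for 1 hr at 30 °C. Tritiated H3 was captured by filter binding and scintillation-counted; IC50 was taken from the dose-response curve.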

[3] = tested on: PRC2-mediated histone H3 methylation in Pfeiffer cells (EZH2 A677G); experiment: Tri-Methyl Histone H3 (Lys 27) sandwich ELISA in Pfeiffer cells; format: cell-based; conditions: Homo sapiens, 96 hours incubation, H3K27me3 ELISA, read-out: IC50 (nM), Inhibition of EZH2-mediated Histone H3 Trimethylation
From the text: The Pfeiffer cell line was established from a […] from a patient having metastatic diffuse large B-cell lymphoma (DLBCL). This cell line expresses a mutant form of the EZH2 enzyme (A677G) that results in enhanced EZH2 activity leading to increased methylation of histone H3 Lys27. Increased trimethylation of histone H3 Lys27 is believed to be implicated in tumorgenesis and poor clinical prognosis in lymphomas (McCabe et al., (2012) Nature 492:108-112).
Inhibition of PRC2-mediated histone H3 methylation by compounds of Formula (I) was measured by ELISA using a Tri-Methyl Histone H3 (Lys 27) Sandwich ELISA Kit (Cell Signaling Tech #7866C) in accordance with the manufacturer's instructions. Briefly, Pfeiffer cells were cultured in RPMI medium supplemented with 10% fetal bovine serum and 1% penicillin and 1% streptomycin in 96 well culture plates at 37° C. to a density of 8000 cells/90 μl/well and the cells were harvested. A series of 3-fold serial dilutions of each test compound of Formula (I) were prepared in RPMI medium and added to the cells at final concentrations ranging from […] to 0.15 nM. The plates were incubated at 37° C. for 96 hours.
After incubation, the cells were pelleted by centrifugation in a pre-cooled 4° C. rotor at 1,100 rpm for 10 min and the supernatant was removed by aspiration. The cell pellet was resuspended in 55 μl of Lysis Buffer (0.4M HCl) and incubated on ice with periodic shaking for 30 minutes. The lysed cells were subjected to centrifugation at 4,200 rpm for 10 min at 4° C. and the supernatant containing acid-soluble proteins was collected and the remainder discarded. The acid-soluble proteins were brought to a neutral pH by the addition of 20 μl of Neutralization Buffer (1 M Sodium phosphate, dibasic (pH 12.5), 2.5 mM DTT and 1 mM PMSF) and the neutralized lysates were analyzed by ELISA.
A 65 μl aliquot of each cell lysate was added to a well of a microwell strip, the microwells were sealed using tape and incubated either at 37° C. for two hours or at 4° C. overnight. After incubation, the tape was removed at the microwells were washed four times using 200 μl of 1× Wash Buffer. To each washed microwell, a 100 μl aliquot of an anti-trimethyl histone H3 Lys27 Detection Antibody solution was added and the microwells were incubated at 37° C. for one hour. The Detection Antibody solution was removed by aspiration and the wells were washed four times each using 200 μl of 1× Wash Buffer.
A 100 μl aliquot of an HRP-linked secondary antibody was added to each well, the wells were sealed with tape and incubated at 37° C. for 30 min. The HRP-linked secondary antibody solution was removed by aspiration and the wells were washed four times using 200 μl of 1× Wash Buffer. A 100 μl aliquot of a TMB substrate was added to each well, the wells were sealed with tape and incubated at 37° C. for 10 min or 25° C. for 30 min. The reaction was stopped by the addition of 100 μl aliquot of a STOP solution and the plate was shaken briefly. The degree of histone H3 trimethylation was determined using a spectrophotometric readout by measuring the absorbance at 450 nm and then calculating the amount of trimethylated histone H3. A=≤100 nM; B=>100 nM−≤500 nM; C=>500 nM and N.D.=not determined.

CN(C)Cc1ccc(-c2cnc(NCc3c(F)ccc4c3CCO4)c3c[nH]c(=O)cc23)cc1 [Example 38]
IC50 [1]: ≤ 250 nM | IC50 [2]: 100 to 250 nM | IC50 [3]: 100 to 500 nM

Cn1nncc1-c1cnc(NCc2c(F)ccc3c2CCO3)c2c[nH]c(=O)cc12 [Example 39]
IC50 [1]: > 500 nM | IC50 [2]: > 250 nM | IC50 [3]: > 500 nM

Cc1cc(S(C)(=O)=O)ccc1-c1cnc(NCc2c(F)ccc3c2CCO3)c2c[nH]c(=O)cc12 [Example 40]
IC50 [1]: ≤ 250 nM | IC50 [2]: 100 to 250 nM | IC50 [3]: 100 to 500 nM

Cc1cc(CN(C)C)ccc1-c1cnc(NCc2c(F)ccc3c2CCO3)c2c[nH]c(=O)cc12 [Example 41]
IC50 [1]: 250 to 500 nM | IC50 [2]: 100 to 250 nM | IC50 [3]: 100 to 500 nM

Cc1cc(-c2cnc(NCc3c(F)ccc4c3CCO4)c3cnc(OC(C)C)cc23)n(C)n1 [Example 43]
IC50 [1]: > 500 nM | IC50 [2]: > 250 nM | IC50 [3]: > 500 nM

Cc1cc(-c2cnc(NCc3c(F)ccc4c3CCO4)c3cnc(OCCN(C)C)cc23)n(C)n1 [Example 44]
IC50 [1]: ≤ 250 nM | IC50 [2]: > 250 nM | IC50 [3]: 100 to 500 nM

COCCOc1cc2c(-c3cc(C)nn3C)cnc(NCc3c(F)ccc4c3CCO4)c2cn1 [Example 45]
IC50 [1]: ≤ 250 nM | IC50 [2]: 100 to 250 nM | IC50 [3]: 100 to 500 nM

CN(C)CCn1nccc1-c1cnc(NCc2c(F)ccc3c2CCO3)c2c[nH]c(=O)cc12 [Example 46, 5-(1-(2-(dimethylamino)ethyl)-1H-pyrazol-5-yl)-8-(((5-fluoro-2,3-dihydrobenzofuran-4-yl)methyl)amino)-2,7-naphthyridin-3(2H)-one]
IC50 [1]: ≤ 250 nM | IC50 [2]: > 250 nM | IC50 [3]: 100 to 500 nM

CN(C)C(=O)c1cc(-c2cnc(NCc3c(F)ccc4c3CCO4)c3c[nH]c(=O)cc23)n(C)n1 [Example 47, 5-(1-(((5-fluoro-2,3-dihydrobenzofuran-4-yl)methyl)amino)-6-oxo-6,7-dihydro-2,7-naphthyridin-4-yl)-N,N,1-trimethyl-1H-pyrazole-3-carboxamide]
IC50 [1]: ≤ 250 nM | IC50 [2]: < 100 nM | IC50 [3]: 100 to 500 nM

Cn1nc(C#N)cc1-c1cnc(NCc2c(F)ccc3c2CCO3)c2c[nH]c(=O)cc12 [Example 48]
IC50 [1]: ≤ 250 nM | IC50 [2]: < 100 nM | IC50 [3]: 100 to 500 nM

Cc1cc(-c2cnc(NCc3c(F)ccc4c3CCO4)c3cnc(N(C)C)cc23)n(C)n1 [Example 49, 4-(1,3-dimethyl-1H-pyrazol-5-yl)-N^1-((5-fluoro-2,3-dihydrobenzofuran-4-yl)methyl)-N^6,N^6-dimethyl-2,7-naphthyridine-1,6-diamine]
IC50 [1]: > 500 nM | IC50 [2]: 100 to 250 nM | IC50 [3]: > 500 nM

Cc1cc(-c2cnc(NCc3c(F)ccc4c3CCO4)c3cnc(N)cc23)n(C)n1 [Example 50, 4-(1,3-dimethyl-1H-pyrazol-5-yl)-N^1-((5-fluoro-2,3-dihydrobenzofuran-4-yl)methyl)-2,7-naphthyridine-1,6-diamine]
IC50 [1]: > 500 nM | IC50 [2]: > 250 nM | IC50 [3]: > 500 nM

Cc1cc(-c2cnc(NCc3c(F)ccc4c3CCO4)c3cccnc23)n(C)n1 [Example 51, 8-(1,3-dimethyl-1H-pyrazol-5-yl)-N-((5-fluoro-2,3-dihydrobenzofuran-4-yl)methyl)-1,6-naphthyridin-5-amine]
IC50 [1]: ≤ 250 nM | IC50 [2]: > 250 nM | IC50 [3]: 100 to 500 nM

COc1ccc2c(NCc3c(F)ccc4c3CCO4)ncc(-c3cc(C)nn3C)c2n1 [Example 52, 8-(1,3-dimethyl-1H-pyrazol-5-yl)-N-((5-fluoro-2,3-dihydrobenzofuran-4-yl)methyl)-2-methoxy-1,6-naphthyridin-5-amine]
IC50 [1]: > 500 nM | IC50 [2]: > 250 nM | IC50 [3]: > 500 nM

Cc1cc(-c2cnc(NCc3c(F)ccc4c3CCO4)c3ccc(=O)[nH]c23)n(C)n1 [Example 53]
IC50 [1]: ≤ 250 nM | IC50 [2]: > 250 nM | IC50 [3]: 100 to 500 nM

COc1nccc2c(NCc3c(F)ccc4c3CCO4)ncc(-c3cc(C)nn3C)c12 [Example 54, 4-(1,3-dimethyl-1H-pyrazol-5-yl)-N-((5-fluoro-2,3-dihydrobenzofuran-4-yl)methyl)-5-methoxy-2,6-naphthyridin-1-amine]
IC50 [1]: 250 to 500 nM | IC50 [2]: > 250 nM | IC50 [3]: > 500 nM

Cc1cc(-c2cnc(NCc3c(F)ccc4c3CCO4)c3cc[nH]c(=O)c23)n(C)n1 [Example 55, 8-(1,3-dimethyl-1H-pyrazol-5-yl)-5-(((5-fluoro-2,3-dihydrobenzofuran-4-yl)methyl)amino)-2,6-naphthyridin-1(2H)-one]
IC50 [1]: ≤ 250 nM | IC50 [2]: > 250 nM | IC50 [3]: > 500 nM

Cc1cc(-c2cnc(NCc3c(F)ccc4c3CCO4)c3ccncc23)n(C)n1 [Example 56, 4-(1,3-dimethyl-1H-pyrazol-5-yl)-N-((5-fluoro-2,3-dihydrobenzofuran-4-yl)methyl)-2,6-naphthyridin-1-amine]
IC50 [1]: > 500 nM | IC50 [2]: > 250 nM | IC50 [3]: 100 to 500 nM

COc1ncnc2c(NCc3c(F)ccc4c3CCO4)ncc(-c3cc(C)nn3C)c12 [Example 57, 5-(1,3-dimethyl-1H-pyrazol-5-yl)-N-((5-fluoro-2,3-dihydrobenzofuran-4-yl)methyl)-4-methoxypyrido[3,4-d]pyrimidin-8-amine]
IC50 [1]: > 500 nM | IC50 [2]: > 250 nM | IC50 [3]: > 500 nM

Cc1cc(-c2cnc(NCc3c(F)ccc4c3CCO4)c3nc[nH]c(=O)c23)n(C)n1 [Example 58, 5-(1,3-dimethyl-1H-pyrazol-5-yl)-8-(((5-fluoro-2,3-dihydrobenzofuran-4-yl)methyl)amino)pyrido[3,4-d]pyrimidin-4(3H)-one]
IC50 [1]: > 500 nM | IC50 [2]: > 250 nM | IC50 [3]: > 500 nM

Cc1cc(-c2cnc(NCc3c(F)ccc4c3CCO4)c3ncncc23)n(C)n1 [Example 59, 5-(1,3-dimethyl-1H-pyrazol-5-yl)-N-((5-fluoro-2,3-dihydrobenzofuran-4-yl)methyl)pyrido[3,4-d]pyrimidin-8-amine]
IC50 [1]: > 500 nM | IC50 [2]: > 250 nM | IC50 [3]: > 500 nM

Source: patent US12421228B2 (Mirati Therapeutics, Inc., priority 2019, dated 2025)
